Key:
[1] = radiochemical stability of the radiotracer after preparation; assay type: physicochemical
[2] = tested on: B16 murine melanoma tumours; assay: Ex vivo biodistribution of [18F]-labelled compounds; assay type: in vivo, C57BL/6J mice
Experimental: (§1) All our studies were performed in accordance with French and European Economic Community (86-609, EEC) guidelines for care of laboratory animals. Protocols were performed under the authorization of the French Direction des Services Veterinaires (authorization no. CE 86-12). Male C57BL/6J mice were originating from Charles River laboratories and maintained at 21° C. with a 12 h/12 h light/dark cycle, fed with a breeding diet (diet A04 from Safe, Villemoisson, France) and received water ad libitum. For transplantation B16BL6 cell suspension were grown in a monolayer culture to confluence, after which cells were trypsinized, washed with phosphate buffer saline (PBS) and they were resuspended in PBS. Mice were anesthetized by isoflurane (4% for induction and 2±0.5% for maintaining in oxygen flux) inhalation. The primary tumour model was induced by subcutaneous injection of 3×10^5 melanoma B16B16 cells in 0.1 mL on the right shoulder of mice.
Ex vivo biodistribution studies: An ex vivo biodistribution study was performed for better comparison of [^18F](1) and [^18F](5). Experimentations were undertaken at day-10 or day-14 after cell inoculation (n=3-6/group). […] Tumours and major organs and tissues were promptly excised, harvested, weighted and their radioactivity counted using a calibrated γ-counter with a 400 to 600 keV energy window. After radioactive decay correction, results were expressed as percentage of injected dose per gram of tissue (% ID/g).

[3] = tested on: B16BL6 tumour; assay: PET imaging in B16BL6 tumour bearing mice; assay type: in vivo, C57BL/6J mice; conditions: 1 h p.i., day-15
Experimental: as §1
Whole-body PET scans were acquired 1 h after bolus injection of […] of the appropriate [^18F]-compound in a volume of 0.15 ml via the tail vein. Mice were anesthetized by intraperitoneal (i.p.) administration (200 μL/mouse) of a ketamine-xylazine mixture in saline: ketamine (100 mg/kg, Imalgene™, Rhône Mérieux, Lyon, France) and xylazine (10 mg/kg, Rompun™, Bayer, France) before radiotracer injection and imaged by using a small-animal PET device, eXplore Vista microPET instrument (GE Healthcare). PET images were acquired by using static mode during 20 min. The acquired data were reconstructed using the 2-Dimensional ordered-subsets expectation maximization (OSEM) algorithm and corrected from decay, scatter and randoms. No corrections were applied for partial volume or attenuation.
Regional tracer uptake was quantified by standard region-of-interest (ROI) analysis with eXplore Vista software package. A manual 2D-ROI was drawn around the tumour in each slice where tumour was visible, and on several subsequent coronal planes containing muscle tissue at the forelimb. Results are expressed by percentage of injected dose per gram of tissue (% ID/g).
PET imaging was performed 1 h post injection of tracers in B16BL6 tumour bearing mice at day-15 after tumours cell inoculation.

[4] = octanol/water (PBS buffer) partition coefficient (log D); assay type: physicochemical

CCN(CCNC(=O)c1cnc2cc(I)ccc2n1)CCOCCOCCOCCOCCOCCOCCOCC[18F] [[^18F](5)]
radiochemically stable at room temperature after preparation [1]: at least 6 h
% ID/g (tumour) ([2]; 1 h p.i.): 9.81 ± 2.96 % ID/g
% ID/g Blood ([2]; 1 h p.i.): 1.15 ± 0.19 % ID/g
% ID/g Bones ([2]; 1 h p.i.): 1.82±0.55 % ID/g
% ID/g Brain ([2]; 1 h p.i.): 1.03 ± 0.18 % ID/g
% ID/g Ceacum ([2]; 1 h p.i.): 6.37 ± 4.84 % ID/g
% ID/g Colon + faeces ([2]; 1 h p.i.): 7.39 ± 1.36 % ID/g
% ID/g Eyes ([2]; 1 h p.i.): 12.24 ± 4.39 % ID/g
% ID/g Heart ([2]; 1 h p.i.): 1.58 ± 0.24 % ID/g
% ID/g Kidney ([2]; 1 h p.i.): 3.60 ± 1.74 % ID/g
% ID/g Liver ([2]; 1 h p.i.): 2.02 ± 0.19 % ID/g
% ID/g Lung ([2]; 1 h p.i.): 1.75 ± 0.18 % ID/g
% ID/g Muscle ([2]; 1 h p.i.): 1.07 ± 0.35 % ID/g
% ID/g Pancreas ([2]; 1 h p.i.): 2.63 ± 1.33 % ID/g
% ID/g Skin ([2]; 1 h p.i.): 1.22 ± 0.22 % ID/g
% ID/g Small intestine ([2]; 1 h p.i.): 16.68 ± 7.93 % ID/g
% ID/g Spleen ([2]; 1 h p.i.): 2.35 ± 0.91 % ID/g
% ID/g Stomach ([2]; 1 h p.i.): 5.87 ± 3.32 % ID/g
TBR Tumour-to-Blood Ratio ([2]; 1 h p.i.): 8.29 ± 2.87
TBoR Tumour-to-Bone Ratio ([2]; 1 h p.i.): 5.35 ± 0.82
TMR Tumour-to-Muscle Ratio ([2]; 1 h p.i.): 9.48 ± 2.41
% ID/g (tumour) ([2]; 2 h p.i.): 5.81 ± 1.37 % ID/g
% ID/g Blood ([2]; 2 h p.i.): 1.37 ± 0.30 % ID/g
% ID/g Bones ([2]; 2 h p.i.): 2.13 ± 0.19 % ID/g
% ID/g Brain ([2]; 2 h p.i.): 1.03 ± 0.10 % ID/g
% ID/g Ceacum ([2]; 2 h p.i.): 12.10 ± 10.31 % ID/g
% ID/g Colon + faeces ([2]; 2 h p.i.): 8.14 ± 1.78 % ID/g
% ID/g Eyes ([2]; 2 h p.i.): 12.10 ± 1.85 % ID/g
% ID/g Heart ([2]; 2 h p.i.): 1.70 ± 0.24 % ID/g
% ID/g Kidney ([2]; 2 h p.i.): 3.52 ± 1.02 % ID/g
% ID/g Liver ([2]; 2 h p.i.): 2.31 ± 0.64 % ID/g
% ID/g Lung ([2]; 2 h p.i.): 1.72 ± 0.72 % ID/g
% ID/g Muscle ([2]; 2 h p.i.): 1.04 ± 0.24 % ID/g
% ID/g Pancreas ([2]; 2 h p.i.): 1.56 ± 0.38 % ID/g
% ID/g Skin ([2]; 2 h p.i.): 0.94 ± 0.51 % ID/g
% ID/g Small intestine ([2]; 2 h p.i.): 19.51 ± 5.43 % ID/g
% ID/g Spleen ([2]; 2 h p.i.): 2.38 ± 0.87 % ID/g
% ID/g Stomach ([2]; 2 h p.i.): 7.35 ± 4.79 % ID/g
TBR Tumour-to-Blood Ratio ([2]; 2 h p.i.): 4.01 ± 1.12
TBoR Tumour-to-Bone Ratio ([2]; 2 h p.i.): 2.75 ± 0.80
TMR Tumour-to-Muscle Ratio ([2]; 2 h p.i.): 5.75 ± 1.45
% ID/g (tumour) ([2]; 3 h p.i.): 6.76±1.35 % ID/g
% ID/g Blood ([2]; 3 h p.i.): 0.99 ± 0.20 % ID/g
% ID/g Bones ([2]; 3 h p.i.): 3.61 ± 1.12 % ID/g
% ID/g Brain ([2]; 3 h p.i.): 1.72 ± 0.67 % ID/g
% ID/g Ceacum ([2]; 3 h p.i.): 29.31 ± 17.94 % ID/g
% ID/g Colon + faeces ([2]; 3 h p.i.): 12.63 ± 7.83 % ID/g
% ID/g Eyes ([2]; 3 h p.i.): 13.43 ± 2.17 % ID/g
% ID/g Heart ([2]; 3 h p.i.): 3.00 ± 1.12 % ID/g
% ID/g Kidney ([2]; 3 h p.i.): 2.60 ± 1.69 % ID/g
% ID/g Liver ([2]; 3 h p.i.): 2.60 ± 1.37 % ID/g
% ID/g Lung ([2]; 3 h p.i.): 2.37 ± 0.67 % ID/g
% ID/g Muscle ([2]; 3 h p.i.): 1.11 ± 0.34 % ID/g
% ID/g Pancreas ([2]; 3 h p.i.): 1.81 ± 0.66 % ID/g
% ID/g Skin ([2]; 3 h p.i.): 1.47 ± 0.49 % ID/g
% ID/g Small intestine ([2]; 3 h p.i.): 18.62 ± 13.65 % ID/g
% ID/g Spleen ([2]; 3 h p.i.): 2.35 ± 0.98 % ID/g
% ID/g Stomach ([2]; 3 h p.i.): 5.39 ± 3.13 % ID/g
TBR Tumour-to-Blood Ratio ([2]; 3 h p.i.): 5.27±0.20
TBoR Tumour-to-Bone Ratio ([2]; 3 h p.i.): 2.16 ± 1.15
TMR Tumour-to-Muscle Ratio ([2]; 3 h p.i.): 6.64±2.69
in vivo defluorination ([2]; 3 h p.i.): Partial in vivo defluorinations
eyes uptake [3]: 5.53±1.35 % ID/g
muscles activity [3]: 1.01±0.09 % ID/g
tumour uptake [3]: 6.63±1.64 % ID/g
tumour/muscle ratio [3]: 6.62±1.90
octanol/water (PBS buffer) partition coefficient (log D) [4]: 0.95±0.02

CCN(CCNC(=O)c1cnc2cc(I)ccc2n1)Cc1cn(CC[18F])nn1 [[^18F](7)]
radiochemically stable at room temperature after preparation [1]: at least 6 h
muscles activity [3]: 0.84 % ID/g
tumour uptake [3]: 14.55 % ID/g
tumour/muscle ratio [3]: 17.41
octanol/water (PBS buffer) partition coefficient (log D) [4]: 2.22±0.03

From patent US20150079000A1, “Labelled Quinoxaline Derivatives as Multimodal Radiopharmaceuticals and Their Precursors” (INSTITUT NATIONAL DE LA SANTET DE LA RECHERCHE MEDICALE, priority 2012, published 2015)
